Laboratory results as given in patent US9156801B2, “2-substituted oleanolic acid derivative, method preparing for same, and application thereof” (HANGZHOU BENSHENG PHARMACEUTICAL CO., LTD., priority 2011, dated 2015).
Converted amounts (≈) assume the structure as drawn.

Tests used:
[1] = tested on: Hep G2 cell line; assay: solid tumor cell growth inhibition, MTT; format: cell-based, human; conditions: Homo sapiens; for inhibition at 16 µg/mL: HepG2, 72 h, Hep G2, 16 μg/mL compound, 72 h, read-out: IR (cell proliferation inhibition rate); for IC50: HepG2, Hep G2, 72 h
Procedure: (§1) Hep-2 (laryngeal carcinoma), A549 (human lung cancer), CaES-17 (esophageal cancer cell), PC-3 (prostate cancer), CNE (nasopharyngeal carcinoma cell), and SK-OV-3 (ovarian cancer cell), all of which are purchased from China Center For Type Culture Collection; RKO (human colon adenocarcinoma cell), MGC 803 (human gastric cancer cell), MG63 (osteosarcoma) and U87 MG (malignant glioma cell), all of which are purchased from Fuxiang Bio-tech Co. Ltd., Shanghai, China; PANC-1 (pancreatic cancer), Hep G2 (human liver cancer cell), Becap37 (human breast cancer cell), and Hela (human cervical cancer cell), all of which are donated by Cancer Research Institute of Zhejiang University, China.
(§2) Obtaining 4000 well-growing human solid tumor cells and inoculating them into wells of a 96-well cell culture plate. The culture medium is DMEM High Glucose cell culture medium containing 10% fetal bovine serum. The plate is placed in a carbon dioxide cell incubator (5% CO2) at 37° C. for 24 hours. After adding the 2-substituted oleanolic acid derivatives of different concentrations and mixing uniformly, the plate is placed in a carbon dioxide cell incubator (5% CO2) at 37° C. and incubated for 72 hours. Then the relative number of the living cells is determined by MTT method. In this experiment, the cell proliferation inhibition rate in control group (not treated with any compound) is set as 0%.

[2] = tested on: RPMI8226 cell line; assay: multiple myeloma cell growth inhibition, MTT; format: cell-based; conditions: Homo sapiens, RPMI-8226; for inhibition at 16 µg/mL: RPMI8226, 16 μg/mL compound, 72 h, read-out: IR (cell proliferation inhibition rate); for IC50: RPMI8226, 72 h
Procedure: Multiple myeloma cell lines: RPMI8226 (multiple myeloma), purchased from Fuxiang Bio-tech Co. Ltd., Shanghai, China.
(§3) Obtaining 6000 well-growing cells as above and inoculating them into wells of a 96-well cell culture plate. The culture medium is the 1640 cell culture medium containing 10% fetal bovine serum. After adding the 2-substituted oleanolic acid derivatives of different concentrations and mixing uniformly, placing the plate in a carbon dioxide cell incubator (5% CO2) at 37° C. and incubated for 72 hours. Then the relative number of viable cells is determined by MTT method. In this experiment, cell proliferation inhibition rate in control group (not treated with any compound) is set as 0%.

[3] = tested on: K562/adr cell line; assay: leukemia cell growth inhibition, MTT; format: cell-based; conditions: Homo sapiens, 72 h; for IC50: K562/Adr; for inhibition at 16 µg/mL: K562/adr, 16 μg/mL compound, read-out: IR (cell proliferation inhibition rate)
Excerpt: (§4) Leukemia cell lines: leukemia cell lines: K562/adr (drug-resistant, chronic myeloid leukemia, CML), NB4 (acute promyelocytic leukemia, AML), Kasumi-1 (acute myeloid leukemia M2 type, AML-M2), Jurkat (acute lymphoblastic leukemia, ALL), all of which are donated by Cancer Research Institute of Zhejiang University, China; and H9 (acute lymphoblastic leukemia, ALL), which is purchased from China Center for Type Culture Collection (CCTCC).
as §3, with “well-growing leukemia” for “well-growing”, “cells” for “cells as above”

[4] = tested on: Kasumi-1 cell line; assay: leukemia cell growth inhibition, MTT; format: cell-based; conditions: Homo sapiens; for inhibition at 16 µg/mL: Kasumi-1, 16 μg/mL compound, 72 h, read-out: IR (cell proliferation inhibition rate); for IC50: Kasumi-1, 72 h
Excerpt: as §4
as §3, with “well-growing leukemia” for “well-growing”, “cells” for “cells as above”

[5] = tested on: NB4 cell line; assay: leukemia cell growth inhibition, MTT; format: cell-based; conditions: Homo sapiens, NB-4; for inhibition at 16 µg/mL: NB4, 16 μg/mL compound, 72 h, read-out: IR (cell proliferation inhibition rate); for IC50: NB4, 72 h
Excerpt: as §4
as §3, with “well-growing leukemia” for “well-growing”, “cells” for “cells as above”

[6] = tested on: H9 cell line; assay: leukemia cell growth inhibition, MTT; format: cell-based; conditions: Homo sapiens; for IC50: H9, 72 h; for inhibition at 16 µg/mL: H9, 16 μg/mL compound, 72 h, read-out: IR (cell proliferation inhibition rate)
Excerpt: as §4
as §3, with “well-growing leukemia” for “well-growing”, “cells” for “cells as above”

[7] = tested on: Jurkat cell line; assay: leukemia cell growth inhibition, MTT; format: cell-based; conditions: Homo sapiens, 72 h; for inhibition at 16 µg/mL: 16 μg/mL compound, read-out: IR (cell proliferation inhibition rate)
Excerpt: as §4
as §3, with “well-growing leukemia” for “well-growing”, “cells” for “cells as above”

[8] = tested on: U87 MG cell line; assay: solid tumor cell growth inhibition, MTT; format: cell-based; conditions: Homo sapiens, U-87 MG, 72 h; for inhibition at 16 µg/mL: 16 μg/mL compound, read-out: IR (cell proliferation inhibition rate)
Procedure: as §1, §2

[9] = tested on: Hep-2 cell line; assay: solid tumor cell growth inhibition, MTT; format: cell-based; conditions: Homo sapiens; for IC50: HEp-2, 72 h; for inhibition at 16 µg/mL: Hep-2, 16 μg/mL compound, 72 h, read-out: IR (cell proliferation inhibition rate)
Procedure: as §1, §2

[10] = tested on: A549 cell line; assay: solid tumor cell growth inhibition, MTT; format: cell-based; conditions: Homo sapiens; for IC50: A549, 72 h; for inhibition at 16 µg/mL: A549, 16 μg/mL compound, 72 h, read-out: IR (cell proliferation inhibition rate)
Procedure: as §1, §2

[11] = tested on: SK-OV-3 cell line; assay: solid tumor cell growth inhibition, MTT; format: cell-based; conditions: Homo sapiens; for IC50: SK-OV-3, 72 h; for inhibition at 16 µg/mL: SK-OV-3, 16 μg/mL compound, 72 h, read-out: IR (cell proliferation inhibition rate)
Procedure: as §1, §2

[12] = tested on: CaES-17 cell line; assay: solid tumor cell growth inhibition, MTT; format: cell-based; conditions: Homo sapiens, CaEs17; for inhibition at 16 µg/mL: CaES-17, 16 μg/mL compound, 72 h, read-out: IR (cell proliferation inhibition rate); for IC50: CaES-17, 72 h
Procedure: as §1, §2

[13] = tested on: MG-63 cell line; assay: solid tumor cell growth inhibition, MTT; format: cell-based; conditions: Homo sapiens; for IC50: MG-63, 72 h; for inhibition at 16 µg/mL: MG-63, 16 μg/mL compound, 72 h, read-out: IR (cell proliferation inhibition rate)
Procedure: as §1, §2

[14] = tested on: Hela cell line; assay: solid tumor cell growth inhibition, MTT; format: cell-based; conditions: Homo sapiens, 72 h; for IC50: HeLa; for inhibition at 16 µg/mL: Hela, 16 μg/mL compound, read-out: IR (cell proliferation inhibition rate)
Procedure: as §1, §2

[15] = tested on: PANC-1 cell line; assay: solid tumor cell growth inhibition, MTT; format: cell-based; conditions: Homo sapiens; for IC50: PANC-1, 72 h; for inhibition at 16 µg/mL: PANC-1, 16 μg/mL compound, 72 h, read-out: IR (cell proliferation inhibition rate)
Procedure: as §1, §2

[16] = tested on: Becap37 cell line; assay: solid tumor cell growth inhibition, MTT; format: cell-based; conditions: Homo sapiens; for inhibition at 16 µg/mL: Becap37, 16 μg/mL compound, 72 h, read-out: IR (cell proliferation inhibition rate); for IC50: Becap37, 72 h
Procedure: as §1, §2

[17] = tested on: MGC 803 cell line; assay: solid tumor cell growth inhibition, MTT; format: cell-based; conditions: Homo sapiens; for inhibition at 16 µg/mL: MGC 803, 16 μg/mL compound, 72 h, read-out: IR (cell proliferation inhibition rate); for IC50: MGC 803, 72 h
Procedure: as §1, §2

[18] = tested on: RKO cell line; assay: solid tumor cell growth inhibition, MTT; format: cell-based; conditions: Homo sapiens, 72 h; for inhibition at 16 µg/mL: 16 μg/mL compound, read-out: IR (cell proliferation inhibition rate)
Procedure: as §1, §2

[19] = tested on: PC-3 cell line; assay: solid tumor cell growth inhibition, MTT; format: cell-based; conditions: Homo sapiens; for IC50: PC-3, 72 h; for inhibition at 16 µg/mL: PC-3, 16 μg/mL compound, 72 h, read-out: IR (cell proliferation inhibition rate)
Procedure: as §1, §2

[20] = tested on: CNE cell line; assay: solid tumor cell growth inhibition, MTT; format: cell-based; conditions: Homo sapiens, 72 h; for inhibition at 16 µg/mL: 16 μg/mL compound, read-out: IR (cell proliferation inhibition rate)
Procedure: as §1, §2

Row | SMILES | inhibition at 16 µg/mL [1] [%] | IC50 [1] [µg/mL] | inhibition at 16 µg/mL [2] [%] | IC50 [2] [µg/mL] | IC50 [3] [µg/mL] | inhibition at 16 µg/mL [3] [%] | inhibition at 16 µg/mL [4] [%] | IC50 [4] [µg/mL] | inhibition at 16 µg/mL [5] [%] | IC50 [5] [µg/mL] | IC50 [6] [µg/mL] | inhibition at 16 µg/mL [6] [%] | inhibition at 16 µg/mL [7] [%] | IC50 [7] [µg/mL] | inhibition at 16 µg/mL [8] [%] | IC50 [8] [µg/mL] | IC50 [9] [µg/mL] | inhibition at 16 µg/mL [9] [%] | IC50 [10] [µg/mL] | inhibition at 16 µg/mL [10] [%] | also measured
1 | COC(=O)[C@]12CCC(C)(C)CC1C1=CCC3[C@@]4(C)CC(C(=O)NCCCN5CCOCC5)C(=O)C(C)(C)C4CC[C@@]3(C)[C@]1(C)CC2 (some centres unmarked) [BS-OA-037] | 95.7 | 8.68 (≈ 13.6 µM) | 99.1 | 2.43 (≈ 3.8 µM) | 1.57 (≈ 2.46 µM) | 97.6 | 63.7 | 13.5 (≈ 21.1 µM) | 97.6 | 4.59 (≈ 7.18 µM) | 8.73 (≈ 13.7 µM) | 95.8 | 80.4 | 11.5 (≈ 17.9 µM) | 92.6 | 11.1 (≈ 17.4 µM) | > 16 | 25.6 | 10.4 (≈ 16.3 µM) | 82 | IC50 [11]: 10.2 µg/mL (≈ 15.9 µM); inhibition at 16 µg/mL [11]: 90.9%; inhibition at 16 µg/mL [12]: 82.3%; IC50 [12]: 11.6 µg/mL (≈ 18.1 µM); IC50 [13]: 12.5 µg/mL (≈ 19.5 µM); inhibition at 16 µg/mL [13]: 64.6%; IC50 [14]: 11 µg/mL (≈ 17.3 µM); inhibition at 16 µg/mL [14]: 93.6%; IC50 [15]: > 16 µg/mL; inhibition at 16 µg/mL [15]: 11.3%; inhibition at 16 µg/mL [16]: 8.4%; IC50 [16]: > 16 µg/mL; inhibition at 16 µg/mL [17]: 80.5%; IC50 [17]: 10.8 µg/mL (≈ 16.9 µM); inhibition at 16 µg/mL [18]: 62.6%; IC50 [18]: 14.4 µg/mL (≈ 22.5 µM); IC50 [19]: 18.7 µg/mL (≈ 29.2 µM); inhibition at 16 µg/mL [19]: 44.2%; inhibition at 16 µg/mL [20]: 52.6%; IC50 [20]: 15.5 µg/mL (≈ 24.2 µM)
2 | COC(=O)[C@]12CCC(C)(C)CC1C1=CCC3[C@@]4(C)CC(C(=O)NCCCN(C)C)C(=O)C(C)(C)C4CC[C@@]3(C)[C@]1(C)CC2 (some centres unmarked) [BS-OA-042] | > 96 | 2.36 (≈ 3.95 µM) | 98.9 | 0.68 (≈ 1.14 µM) | 0.64 (≈ 1.07 µM) | 98.4 | 99.1 | 4.1 (≈ 6.87 µM) | 100 | 2.63 (≈ 4.41 µM) | 3.12 (≈ 5.23 µM) | 95.9 | 99 | 2.43 (≈ 4.07 µM) | 98.6 | 2.54 (≈ 4.26 µM) | 5.99 (≈ 10 µM) | 95.2 | 2.06 (≈ 3.45 µM) | 96.9 | IC50 [11]: 3.63 µg/mL (≈ 6.08 µM); inhibition at 16 µg/mL [11]: 97.9%; inhibition at 16 µg/mL [12]: 98.1%; IC50 [12]: 2.97 µg/mL (≈ 4.98 µM); IC50 [13]: 2.72 µg/mL (≈ 4.56 µM); inhibition at 16 µg/mL [13]: 98.2%; IC50 [14]: 3.47 µg/mL (≈ 5.81 µM); inhibition at 16 µg/mL [14]: 98.9%; IC50 [15]: 5.02 µg/mL (≈ 8.41 µM); inhibition at 16 µg/mL [15]: 99.4%; inhibition at 16 µg/mL [16]: 98.7%; IC50 [16]: 4.32 µg/mL (≈ 7.24 µM); inhibition at 16 µg/mL [17]: 99.2%; IC50 [17]: 2.84 µg/mL (≈ 4.76 µM); inhibition at 16 µg/mL [18]: 100%; IC50 [18]: 3.29 µg/mL (≈ 5.51 µM); IC50 [19]: 4.78 µg/mL (≈ 8.01 µM); inhibition at 16 µg/mL [19]: 100%; inhibition at 16 µg/mL [20]: 99.5%; IC50 [20]: 3.89 µg/mL (≈ 6.52 µM)
